How the values were obtained:
[1] = maximum PFC dissolved in ethanol; type: physicochemical; settings: in ethanol (co-solvent)
Experimental: PFC ouzo droplets were synthesized by first dissolving a PFC into ethanol (co-solvent). A maximum of approximately 2.0% perfluorohexane (C6F14, TBoiling=56° C.), 2.3% perfluoropentane (C5F12, TBoiling=29° C.), 2.5% perfluorobutane (C4F10, TBoiling=2° C.), and 2.7% perfluoropropane ([…], TBoiling=−37° C.) by volume could be dissolved in ethanol. In the ethanol phase, a 20:1 mole ratio of dipalmitoylphosphatidylcholine (DPPC) and N-(Methylpolyoxyethylene oxycarbonyl)-1,2-distearoyl-sn-glycero-3-phosphoethanolamine sodium salt (DSPE-PEG 2K) lipids were also dissolved. The total lipid concentration was varied from 0.10 mg/ml to 1.82 mg/ml depending on the volume of perfluorocarbon that was used. […] However, lower concentration lipids solutions were not used to ensure ample lipids were in solution to stabilize the droplet interface. […] When an aqueous solution (solvent) prepared at a ratio of 7:2:1 water/propylene glycol/glycerol is added to the PFC/ethanol solution, the PFC oil phase quickly loses solubility resulting in the spontaneous nucleation of stable droplets (FIG. 2). Since PFCs are known to have very poor solubility in water, the greater the water content relative to ethanol, the lower the PFC solubility is in the final mixed solvent. The inclusion of glycerol and propylene glycol is optional for droplet nucleation. For example, PFC emulsions can also be generated in the absence of any stabilizer (FIGS. 8 and 9). However, glycerol and propylene glycol are commonly used along with lipid mixtures to improve microbubble stability. Here, glycerol and propylene glycol were also included in the ouzo droplet formulation to make the agent composition analogous to microbubbles and to increase stability.
The lipid-ethanol stock solution was then divided as needed. Using a stir plate, PFCs were then dissolved in the lipid-ethanol solution until it was fully saturated. For liquid PFCs (i.e. PFH and PFP), the PFC oil was incrementally added to the stirred ethanol solution until a small droplet of PFC formed in solution. The solution was then removed from the stir plate and allowed to rest at room temperature for approximately 20 minutes, enabling excess PFC to fall to the bottom of the container. For gaseous PFCs (i.e. PFB and OFP), PFC gas was bubbled into a sealed glass vial with the ethanol solution at a pressure of 1.5-2.0 PSI while on ice. It was bubbled through for a minimum of 2 minutes and purged 3 times to ensure the headspace was filled with gaseous PFC. Then, the PFC-lipid-ethanol solution was pipetted into a clean glass vial and diluted as needed using additional lipid-ethanol solution to achieve the desired PFC in ethanol saturation percentage. […]

[2] = test system: rat spinal cord; test: ultrasound contrast imaging in a rat spinal cord model; type: in vivo, Sprague-Dawley rat; settings: bolus via tail vein, 15 MHz linear array, harmonic imaging
Experimental: Ouzo-synthesized droplets were used as an ultrasound contrast agent in a rat spinal cord model (FIGS. 7A-7D). Surgical procedures were performed according to approved institutional animal care and use committee (IACUC) protocol following all appropriate guidelines from the university's Animal Welfare Assurance (A3464-01) as well as the NIH Office of Laboratory Animal Welfare (OLAW). A laminectomy was performed to remove the top surface of spine vertebrae, exposing the spinal cord. A bolus injection of perfluorobutane droplets ([…]) with a mean diameter of 182 nm was administered via tail vein and imaged using a 15 MHz linear array ultrasound transducer. […] Harmonic imaging was necessary to suppress intrinsic linear signals from this tissue model and to highlight the non-linear signals that are generated from bubble oscillations.
Surgical procedures were performed according to approved institutional animal care and use committee (IACUC) protocol following all appropriate guidelines from the university's Animal Welfare Assurance (A3464-01) as well as the NIH Office of Laboratory Animal Welfare (OLAW). A 0.2 ml bolus injection of perfluorobutane droplets diluted to approximately 10^6 droplet/ml was injected via tail vein in an anesthetized female Sprague-Dawley rat. An ultrasound imaging window was made by performing a laminectomy to expose the spinal cord between T6 and T10. […]

SMILES: FC(F)(F)C(F)(F)C(F)(F)C(F)(F)F [perfluorobutane]
- maximum that could be dissolved in ethanol [1]: ~2.5 % by volume

SMILES: FC(F)(F)C(F)(F)C(F)(F)C(F)(F)C(F)(F)C(F)(F)F [perfluorohexane]
- ultrasound contrast enhancement after injection [2]: nearly zero contrast enhancement
- maximum that could be dissolved in ethanol [1]: approximately 2.0 % by volume

SMILES: FC(F)(F)C(F)(F)C(F)(F)C(F)(F)C(F)(F)F [perfluoropentane]
- ultrasound contrast enhancement after injection [2]: nearly zero contrast enhancement
- maximum that could be dissolved in ethanol [1]: ~2.3 % by volume

SMILES: FC(F)(F)C(F)(F)C(F)(F)F [perfluoropropane]
- maximum that could be dissolved in ethanol [1]: ~2.7 % by volume

Source: patent US20190307908A1, “NANOEMULSION AGENTS FOR ULTRASOUND DIAGNOSTIC AND THERAPY” (University of Washington, priority 2018, published 2019)
